Results: patent publication US5198552A, “Indole derivative having antiviral, interferon-inducing and immunomodulatory effects” (priority 1991, dated 1993)
Entries after “also recorded” stand apart in the source; their conditions may differ. Read-outs that look alike come from different tables or passages of the source.

Key:
[1] = Physical properties of the compound (heating, solubility, hygroscopicity, pH of solution); type: physicochemical
Method: The compound according to the invention is a crystalline powder, having a colour from white with tints of green-yellow to light-yellow with green hues; a bitter in taste, odourless. The melting point of the compound is not characteristic.
The solution containing 1 g of the compound in 1450 ml of water at 25° C. has pH of 4.37 (potentiometrically).

influenza A/B viruses [2] = type: cell-based
influenza A/B viruses [3] = assay: Medicinal effect on experimental influenzal pneumonia of mice induced by influenza A/B viruses; type: in vivo; conditions: hydrochloride monohydrate
influenza viruses = assay: Virucidal action on influenza viruses
[4] = Maximum tolerable concentration for chick embryo fibroblasts; type: cell-based; conditions: chicken
[5] = Long-term per os toxicity, rats; type: in vivo; conditions: per os 100 to 125 mg/kg during 6 months
[6] = Long-term per os toxicity, guinea pigs; type: in vivo; conditions: per os 100 to 125 mg/kg over 3 months
[7] = Long-term per os toxicity, rabbits; type: in vivo; conditions: per os 50 mg/kg during 2 months
[8] = Localized irritant action in oral administration (hystological tests); type: in vivo
[9] = Allergizing effect, guinea pigs; type: in vivo; conditions: subcutaneous injections and repeated skin applications
[10] = Allergizing effect, rabbits; type: in vivo; conditions: subcutaneous injections and repeated skin applications
influenza A/B virus = assay: Clinical trial against influenza A/B virus infection; type: in vivo, human; conditions: hydrochloride monohydrate
Method: The clinical checking of the preparation was performed in comparison to control groups o patients which were taken a symptomatic treatment.

interferon [11] = type: cell-based, hen; conditions: 20 µg/ml
interferon [12] = assay: Interferon induction in mouse blood serum; type: in vivo, mice
[13] = tested on: influenza A virus (Bethezda) 63 (H2 N2), A (Aichi) (H3 N2); assay: Preventive action in mouse influenzal pneumonia; type: in vivo, mice; conditions: for The decrease of lethality: P <0.01; for Lethality: absolute animal number: dead/total
Method: Its preventive effect was studied on a mouse influenzal pneumonia induced by infecting the animals intranasally with influenza A virus (Bethezda) 63 (H2 N2), A (Aichi) (H3 N2) and on a generalized mouse herpes, induced by intranasal infection of them with herpes simplex virus from antigen-type I L2 -strain.
A single administration of the preparation per os in the dose of 30 mg/kg 24 hours prior to infection prevents the death of 40% of animals suffering from a generalized herpetic infection.

interferon [14] = assay: Interferon induction in human blood serum; type: in vivo
antibody-producing cells = assay: Antibody-producing cells in the spleen of mice immunized with sheep erythrocytes; type: in vivo; parameters: immune response against the control: concentration or dose not given beside the values
stem cells = assay: Inactivation of stem cells with allogenic lymphocytes (graft versus host, spleen endocolonies); type: in vivo, mice
sarcoma-45 = assay: Development of grafted sarcoma-45; type: in vivo, rats; conditions: for Sarcoma growth: 125 mg/kg daily during 5 days, p < 0.05
Text: Control animals were given only a starch solution. The dynamic development of the tumor was monitored by intravital measurements of its mass.

[15] = Effect on thermal skin lesion; conditions: in vivo
lymphocytes = type: in vivo, human
[16] = Prolonged administration to animals; type: in vivo
[17] = clinical trials
[18] = Acute toxicity, single oral administration, mice; conditions: mouse, in vivo
[19] = patients with influenza virus infection
[20] = 31.2 mg/kg per os 24 and 6 hours before infecting
[21] = 62.5 mg/kg per os 24 and 6 hours before infecting
[22] = 125 mg/kg per os 24 and 6 hours before infecting
[23] = single 100 mg and 300 mg daily per os

CCOC(=O)c1c(CSc2ccccc2)n(C)c2cc(Br)c(O)c(CN(C)C)c12.Cl.O [preparation of the invention, ethyl 6-bromo-5-hydroxy-4-dimethylaminomethyl-1-methyl-2-phenylthiomethylindole-3-carboxylate hydrochloride monohydrate]
hygroscopicity [1]: non-hydroscopic | pH of solution ([1]; 1 g of the compound in 1450 ml of water at 25° C., potentiometrically): 4.37 | behaviour when heated ([1]; heated for 3 hours at 110° to 120° C.): looses the molecule of H2 O | solubility in water, methanol, ethanol ([1]; water, methanol, ethanol): poorly soluble | inhibition of influenza A/B virus reproduction / chemotherapeutical effect (influenza A/B viruses [2]; hydrochloride monohydrate): shows a pronounced chemotherapeutical effect; also recorded: Inhibits the reproduction | stage at which the virus-inhibiting effect is expressed (influenza A/B viruses [2]; single-stage infection, 5 μm/ml, reducing infectivity titer and suppressing plague-forming activity): early stages of influenza viruses reproduction in cells: adsorption, penetration and probably deproteinization | medicinal (chemotherapeutical) effect on influenzal pneumonia (influenza A/B viruses [3]): shows a pronounced chemotherapeutical effect; also recorded: Exerts a medicinal effect | virucidal action on influenza viruses (influenza viruses): No virucidal action | MNTC [4]: 20 µg/mL | pathological changes [5]: did not cause any pathological changes | pathological changes [6]: did not cause any pathological changes | pathological changes [7]: did not cause any pathological changes | localized irritant action [8]: no localized irritant action | allergizing action [9]: did not exert an allergizing action | allergizing action [10]: did not exert an allergizing action | therapeutical efficacy against influenza A/B virus infection (influenza A/B virus; human, in vivo, po): has the therapeutical effect on influenza A/B virus infections; also recorded: shortening the febrile period, intoxication and catarrhal conditions as well as by shortening the illness duration | frequency of chronic disease exacerbations (influenza A/B virus; [19]): considerably decreases the frequency of chronic disease exacerbations; also recorded: decreased considerably the frequency of chronic disease exacerbations | postinfluenzal complications (influenza A/B virus; [19]): prevents from post-influenzal complications; also recorded: prevented the development of postinfluenzal complications | Interferon titer (interferon [11]; 8 hours): 640-1280 U/ml | maximum interferon titer (interferon [11]; 24 hours): 2560 U/ml | Interferon titer (interferon [11]; by 48 hours): 320 U/ml | interferon induction on repeated administering (interferon [12]; mice, repeated administering): a depressed reactivity state condition occurs in the animals | Interferon titer (interferon [12]; per os, 62.5 mg/kg, after 16 h): 320-640 U/ml | Interferon titer (interferon [12]; per os, 62.5 mg/kg, after 24 h): 640 U/ml | Interferon titer (interferon [12]; per os, 62.5 mg/kg, after 48 h): 160 U/ml | Interferon titer (interferon [12]; per os, 62.5 mg/kg, after 72 h): 40 U/ml | Interferon titer (interferon [12]; per os, 125 mg/kg, after 16 h): 640 U/ml | Interferon titer (interferon [12]; per os, 125 mg/kg, after 24 h): 320-640 U/ml | Interferon titer (interferon [12]; per os, 125 mg/kg, after 48 h): 640 U/ml | Interferon titer (interferon [12]; per os, 125 mg/kg, after 72 h): 160 U/ml | Interferon titer (interferon [12]; per os, 250 mg/kg, after 16 h): 320-540 U/ml | Interferon titer (interferon [12]; per os, 250 mg/kg, after 24 h): 640-1280 U/ml | Interferon titer (interferon [12]; per os, 250 mg/kg, after 48 h): 320 U/ml | Interferon titer (interferon [12]; per os, 250 mg/kg, after 72 h): 160 U/ml | high interferon titers in mouse blood serum (interferon [12]; per os, 250 to 62.5 mg/kg, 16 hours, persisted up to 48 hours): 640 U/ml | Lethality [13, 20]: 30% | The decrease of lethality [13, 20]: 40% | Lethality: absolute animal number [13, 20]: 12/40 | lowering of lethality as compared to control ([13]; 31.2 mg/kg to 125 mg/kg per os 24 and 6 hours before infecting): 40-50% | Lethality [13, 21]: 20% | The decrease of lethality [13, 21]: 50% | Lethality: absolute animal number [13, 21]: 8/40 | Lethality [13, 22]: 20% | The decrease of lethality [13, 22]: 50% | Lethality: absolute animal number [13, 22]: 8/40 | volunteers with interferon induction (interferon [14]; 3-times administration (300 mg), all 12): 100% | Interferon titer (interferon [14]; 3 times per day (300 mg)): 160-320 U/ml | The number of positive reactions (interferon [14]; 3 times per day (300 mg), 12 men): 12 | The number of positive reactions (interferon [14]; 6 times per day during 2 days (600 mg), 12 men): 12 | Interferon titer (interferon [14]; during 2 days (600 mg)): 40-80 U/ml | development of hyporeactivity on increase in dose and duration (interferon [14]; increase in dose and duration of administration): development of hyporeactivity in human beings | Interferon titer (interferon [14]; single administration (100 mg)): 40-80 U/ml | The number of positive reactions (interferon [14]; single administration per day (100 mg), 13 men): 8 | volunteers with interferon induction (interferon [14]; single per os 100 mg, 8 out of 13): 61.5% | immunopotentiating effect on tumor-carrier animals (antibody-producing cells; 7-17 day of tumor development, single (3 days prior to immunization) or 5-times daily): immunopotentiating effect on tumor-carrier animals | Antibody-producing cells in spleen (% of control) (antibody-producing cells; intact mice, a single use): 246 ± 6.0% | Antibody-producing cells in spleen (% of control) (antibody-producing cells; intact mice, during 3 days, daily): 141 ± 13% | Antibody-producing cells in spleen (% of control) (antibody-producing cells; intact mice, during 5 days, daily): 192 ± 14.0% | immunostimulating effect on irradiated animals (antibody-producing cells; irradiated animals): pronounced immunostimulating effect | immune response against the control (antibody-producing cells; irradiated animals, administered 3 days prior to irradiation): 230% | stimulation of antibody genesis, compared with reference standards (antibody-producing cells; mice, intact and irradiated): superior over reference standards--levamisole and a double-stranded RF2 phage RNA | Antibody-producing cells in spleen (% of control) (antibody-producing cells; totally irradiated (2 Gr.), 5 times in 3 days): 96 ± 20.0% | Antibody-producing cells in spleen (% of control) (antibody-producing cells; totally irradiated (2 Gr.), a single use): 230 ± 12.0% | Antibody-producing cells in spleen (% of control) (antibody-producing cells; totally irradiated (2 Gr.), during 3 days, daily): 129 ± 19% | Antibody-producing cells in spleen (% of control) (antibody-producing cells; totally irradiated (2 Gr.), during 5 days, daily): 181 ± 11.3% | immunopotentiating effect on totally irradiated tumor-carrier animals (antibody-producing cells; totally irradiated tumor-carriers): pronounced immunopotentiating effect | Antibody-producing cells in spleen (% of control) (antibody-producing cells; totally irradiated tumor-carriers (2 Gr.), 5 times in 3 days): 250 ± 21.5% | Antibody-producing cells in spleen (% of control) (antibody-producing cells; totally irradiated tumor-carriers (2 Gr.), during 3 days, daily): 121 ± 25% | Antibody-producing cells in spleen (% of control) (antibody-producing cells; totally irradiated tumor-carriers (2 Gr.), during 5 days, daily): 128 ± 28.5% | Antibody-producing cells in spleen (% of control) (antibody-producing cells; tumor-carriers, 5 times in 3 days): 110 ± 11.0% | Antibody-producing cells in spleen (% of control) (antibody-producing cells; tumor-carriers, a single use): 211 ± 10.0% | Antibody-producing cells in spleen (% of control) (antibody-producing cells; tumor-carriers, during 3 days, daily): 99 ± 19% | The counts of spleen endocolonies (M ± m) (stem cells; 1.25 × 10^6 lymphocytes): 2.5 ± 0.4 | The counts of spleen endocolonies (M ± m) (stem cells; 2.5 × 10^6 lymphocytes): 1.6 ± 0.2 | The counts of spleen endocolonies (M ± m) (stem cells; 5.0 × 10^6 lymphocytes): 0.3 ± 0.1 | effect on yield of spleen colonies under graft versus host conditions (stem cells; preparation 100 mg per 1 kg orally, levamisole 5 mg per 1 kg, hydrochloride monohydrate): reduces both observed deviations as compared to control values if the concentration of introduced cells is not the highest; also recorded: normalizes the proliferative activity of target cells and their ability of producing a vital colony | Sarcoma growth (sarcoma-45; 1 month 10 days after grafting): 21.0 ± 3.9 cm^3 | Sarcoma growth (sarcoma-45; 1 month 16 days after grafting): 38.0 ± 7.5 cm^3 | Sarcoma growth (sarcoma-45; 1 month after grafting): 8.2 ± 1.4 cm^3 | Sarcoma growth (sarcoma-45; 2 months after grafting): 39.9 ± 9.7 cm^3 | effect on development of the tumor (sarcoma-45; 12 month period of observation, hydrochloride monohydrate): inhibition of the development of tumor was found; also recorded: inhibitory effect on the development of a massive tumor | effect on a thermal skin lesion [15]: exert a thermoprotective action and reduce a thermal skin lesion | bonding receptors with the outer lymphocyte membrane (lymphocytes; [23]): leads to changes in bonding receptors with the outer lymphocyte membrane | counts of T-populations (lymphocytes; [23]): fails to change the counts of T-populations | persistence of changes in bonding receptors (lymphocytes; time of observation): 14 days | effect of vaccination on the nature of changes of bonding receptors (lymphocytes; vaccination 24 hours after administering): no effect on the nature of changes of bonding receptors | alternations in parenchymatous organs [16]: may cause in animals the development of non-specific degenerative alternations in parenchymatous organs | toxicity / tolerability in patients [17]: non-toxic, is well tolerated by patients | LD50 [18]: 340 mg/kg
